# Reference: patent US8820316B2, “Drug delivery apparatus” (Respironics Respiratory Drug Delivery (UK) Ltd, priority 2000, dated 2014)
# Tests used:
# [1] = Budesonide study in 125 children with asthma using the system of the invention, asthma symptom score; format: in vivo; settings: Improved Invention System, 200/50 μg; for daytime asthma symptom score, Baseline at entry / daytime asthma symptom score, End of Study: visual analogue range 0-3
# Experimental: A study in 125 children with asthma using the system disclosed in this patent delivered three different regimes of a short duration (2-12 weeks) high delivered daily dose 200 μg followed by a long duration (12-22 weeks) low daily dose delivered dose 50 μg. Their treatment compliance was monitored electronically and their asthma symptoms by the parents using a visual analogue score. The treatment compliance over the study was 80/90% and the asthma scores reduced from a baseline of 1.23/1.27 to 0.23/0.43.
# [2] = Budesonide study in 481 children with asthma using conventional nebulizers, asthma symptom score; format: in vivo; settings: Conventional Nebuliser; for daytime asthma symptom score, End of Study: 12 weeks; for daytime asthma symptom score, End of Study / daytime asthma symptom score, Baseline at entry: visual analogue range 0-3
# Experimental: The study in 481 children with asthma using conventional nebulizers delivered five different regimes. Nominal nebulizer doses were in the range 250/1000 μg daily and placebo over a 12 week period. Their asthma symptoms by the parents using a visual analogue scores, the asthma scores reduced from 1.21/1.33 to 0.87/0.93.
# Pseudomonas aeriginosa = settings: typically required, for 90% of organisms; to be maintained for 120 minutes; cited from earlier work
# [3] = Sputum tobramycin concentration, conventional nebulizer versus high compliance system; format: in vivo, patients; settings: human, inhaled
# Experimental: To compare the performance of a conventional nebulizer and a high compliance system according to this invention using Tobramycin 8 patients received either 300 mg/5 ml via conventional nebulizer or 30 mg delivered dose via the high compliance system. The mean sputum tobramycin concentrations at 2 hours were 128 μg/g for the conventional nebulizer and 98 μg/g for the high compliance system. This study may indicate that an even lower dose may be acceptable to achieve the MIC level when delivered with a high compliance system such as disclosed in this invention, in the range 5-30 mg Tobramycin.
# [4] = test system: susceptible bacteria in the endobronchial space; settings: 200-400 mg aminoglycoside in about 5 ml, 0.225% NaCl, pH 5.5-6.5, aerosolised (WO 96/12471); cited from earlier work
# [5] = rhDNase response (FEV1) in adult CF patients who previously failed to respond; format: in vivo
# From the text: Mean change in FEV1 was 11.51%.
# [6] = when starting rhDNase therapy; cited from earlier work
molecule,measurement,setting,value
CCCC1O[C@@H]2C[C@H]3[C@@H]4CCC5=CC(=O)C=C[C@]5(C)[C@H]4[C@@H](O)C[C@]3(C)[C@]2(C(=O)CO)O1 (stereo partly shown) [Budesonide],"daytime asthma symptom score, Change",[1]; 2/22 weeks,−1
same,"daytime asthma symptom score, Baseline at entry",[1]; 2/22 weeks,1.23
same,"daytime asthma symptom score, End of Study",[1]; 2/22 weeks,0.23
same,"daytime asthma symptom score, Change",[1]; 6/18 weeks,−0.83
same,"daytime asthma symptom score, Baseline at entry",[1]; 6/18 weeks,1.26
same,"daytime asthma symptom score, End of Study",[1]; 6/18 weeks,0.43
same,"daytime asthma symptom score, Change",[1]; 12/12 weeks,−0.91
same,"daytime asthma symptom score, Baseline at entry",[1]; 12/12 weeks,1.27
same,"daytime asthma symptom score, End of Study",[1]; 12/12 weeks,0.36
same,"daytime asthma symptom score, Change",[2]; 250 μg once daily,−0.28
same,"daytime asthma symptom score, End of Study",[2]; 250 μg once daily,0.93
same,"daytime asthma symptom score, Baseline at entry",[2]; 250 μg once daily,1.21
same,"daytime asthma symptom score, Change",[2]; 250 μg twice daily,−0.4
same,"daytime asthma symptom score, End of Study",[2]; 250 μg twice daily,0.91
same,"daytime asthma symptom score, Baseline at entry",[2]; 250 μg twice daily,1.31
same,"daytime asthma symptom score, Change",[2]; 500 μg twice daily,−0.46
same,"daytime asthma symptom score, End of Study",[2]; 500 μg twice daily,0.87
same,"daytime asthma symptom score, Baseline at entry",[2]; 500 μg twice daily,1.33
same,"daytime asthma symptom score, Change",[2]; 1000 μg once daily,−0.37
same,"daytime asthma symptom score, End of Study",[2]; 1000 μg once daily,0.91
same,"daytime asthma symptom score, Baseline at entry",[2]; 1000 μg once daily,1.28
NC[C@H]1O[C@H](O[C@H]2[C@H](O)[C@@H](O[C@H]3O[C@H](CO)[C@@H](O)[C@H](N)[C@H]3O)[C@H](N)C[C@@H]2N)[C@H](N)C[C@@H]1O [Tobramycin],MIC level,Pseudomonas aeriginosa,> 16 µg/mL
same,concentration at 2 h,[3]; 30 mg delivered dose via the high compliance system,98000 ng/g
same,concentration at 2 h,[3]; 300 mg/5 ml via conventional nebulizer,128000 ng/g
same,suppresses and inhibits susceptible bacteria,[4],at least 95%
"rhDNase: Pulmozyme (recombinant, human DNase), mucoactive drug for cystic fibrosis lung disease (protein, UniProt P24855 23-282, looked up, dornase alfa) Deoxyribonuclease-1: LKIAAFNIQTFGETKMSNATLVSYIVQILSRYDIALVQEVRDSHLTAVGKLLDNLNQDAPDTYHYVVSEPLGRNSYKERYLFVYRPDQVSAVDSYYYDDGCEPCGNDTFNREPAIVRFFSRFTEVREFAIVPLHAAPGDAVAEIDALYDVYLDVQEKWGLEDVMLMGDFNAGCSYVRPSQWSSIRLWTSPTFQWLIPDSADTTATPTHCAYDRIVVAGMLLRGAVVPDSALPFNFQAAYGLSDQLAQAISDHYPVEVMLK",Mean change in FEV1,"[5]; 10 days, 0.25 ml/0.25 mg of the formulation, high compliance delivery system",11.51%
same,"mean response to therapy, change in FEV1",[5]; previous rhDNase therapy with conventional nebulizer devices,4.17%
same,patients showing a greater than 10% change in FEV1 over baseline,[6],Approximately 38%
